Assays:
[1] = biological target: T1, Recombinant human α-L-iduronidase protein (Homo sapiens, UniProt P35475); test: Denaturation prevention assay in neutral pH buffer; format: biochemical; conditions: 500 µM reference compound, pH 7, 37° C.
T1 construct: Ala26-Pro653 with a C-terminal 10_His tag; 10xHis (C); host or cells: HEK293f (stated in b1366 for the UAB protein)
T1 sequence (P35475 26-653): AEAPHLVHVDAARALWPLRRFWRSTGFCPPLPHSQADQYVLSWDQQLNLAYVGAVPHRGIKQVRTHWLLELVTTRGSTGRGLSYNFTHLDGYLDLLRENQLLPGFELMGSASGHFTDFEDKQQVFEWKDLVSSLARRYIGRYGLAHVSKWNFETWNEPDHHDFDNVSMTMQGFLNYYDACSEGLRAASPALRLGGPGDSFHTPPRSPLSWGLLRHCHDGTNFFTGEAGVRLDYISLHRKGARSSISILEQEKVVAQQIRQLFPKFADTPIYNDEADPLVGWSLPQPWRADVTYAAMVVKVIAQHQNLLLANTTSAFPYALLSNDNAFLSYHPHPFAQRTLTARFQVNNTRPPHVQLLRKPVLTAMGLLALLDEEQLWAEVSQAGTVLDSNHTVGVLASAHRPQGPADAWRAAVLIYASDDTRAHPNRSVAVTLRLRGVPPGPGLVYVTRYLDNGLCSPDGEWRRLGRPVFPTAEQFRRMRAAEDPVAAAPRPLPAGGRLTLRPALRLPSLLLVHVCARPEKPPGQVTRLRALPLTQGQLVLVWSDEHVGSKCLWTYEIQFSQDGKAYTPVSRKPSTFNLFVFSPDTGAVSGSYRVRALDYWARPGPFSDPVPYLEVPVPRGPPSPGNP
Description: The capacity of Compounds of the Disclosure to stabilize α-L-iduronidase in neutral pH buffer was assessed using the denaturation prevention assay.
(§1) Briefly, recombinant human α-L-iduronidase protein (obtained in the Institute of Biotechnology and Biomedicine in the UAB, Bellaterra, Spain) was combined at a final concentration of 1 µM with 5X of SYPRO Orange and 30 µM of the corresponding compound in a final reaction volume of 25 µL in 100 mM Hepes 20 mM MgCl2 pH 7 buffer. Reactions were incubated at 37° C. and SYPRO Orange fluorescence intensity was monitored at the indicated time points using Glomax® Discover Microplate Reader from Promega (Madison, WI, USA).
The compound referred to as Compound A throughout this specification is the compound of Example 8 described above. […] (T=37° C.).

[2] = biological target: T2, ALDURAZYME (laronidase, IDUA) (Homo sapiens, UniProt P35475); test: Denaturation prevention assay with ALDURAZYME; format: biochemical; conditions: 30 µM compound, pH 7, 37° C.
T2 construct: purchased ALDURAZYME®
T2 sequence (P35475 26-653 limits assumed): T1 sequence (P35475 26-653)
Description: as §1
Compounds of Examples 8, 39, 40, 54, and 72 were also tested as described above, except that ALDURAZYME® was used instead of the recombinant human α-L-iduronidase protein (obtained in the Institute of Biotechnology and Biomedicine in the UAB, Bellaterra, Spain).

[3] = biological target: T3, Recombinant human α-L-iduronidase protein (Homo sapiens, UniProt P35475); test: Differential scanning fluorimetry (DSF) thermal stabilization; format: binding; conditions: synthetized Examples 38-94; ΔTm class;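 note: Classes count stabilization of α-L-iduronidase despite the GALC label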
T3 construct: purchased R&D
T3 sequence (P35475 28-653): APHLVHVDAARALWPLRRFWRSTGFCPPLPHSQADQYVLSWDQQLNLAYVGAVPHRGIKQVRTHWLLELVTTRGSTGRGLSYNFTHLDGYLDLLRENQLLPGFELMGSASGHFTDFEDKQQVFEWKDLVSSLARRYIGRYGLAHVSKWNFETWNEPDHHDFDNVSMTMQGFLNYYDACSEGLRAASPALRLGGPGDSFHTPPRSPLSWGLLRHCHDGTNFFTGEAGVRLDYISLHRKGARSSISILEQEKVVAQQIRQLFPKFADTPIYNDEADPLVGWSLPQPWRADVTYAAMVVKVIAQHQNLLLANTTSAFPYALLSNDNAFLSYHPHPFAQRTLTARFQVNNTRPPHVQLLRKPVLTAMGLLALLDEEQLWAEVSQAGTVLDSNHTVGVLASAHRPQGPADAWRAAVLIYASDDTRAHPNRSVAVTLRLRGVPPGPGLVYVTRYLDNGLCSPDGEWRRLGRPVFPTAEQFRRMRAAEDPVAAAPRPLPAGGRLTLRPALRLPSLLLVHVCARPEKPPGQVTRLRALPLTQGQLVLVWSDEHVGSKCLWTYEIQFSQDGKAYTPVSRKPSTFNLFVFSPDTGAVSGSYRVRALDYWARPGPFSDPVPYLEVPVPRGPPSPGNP
Summary of the method: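 Purified recombinant human α-L-iduronidase (final 0.75 µM) in 100 mM Hepes, 20 mM MgCl2, pH 7 with SYPRO Orange was heated with compounds (final 1% DMSO). Thermal denaturation was followed by probe fluorescence during a temperature ramp, and stabilization expressed as ΔTm, binned into four categories (A–D).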

prevention of pH-induced IDUA denaturation [1] | prevention of IDUA denaturation [2] | SMILES | DSF Activity range [3]
minimal effect | – | O=C[C@H](O)[C@@H](O)[C@H](O)[C@@H](O)C(=O)O [L-iduronic acid, reference compound] | –
– | prevent IDUA denaturation | Cc1csc2c(=O)[nH]c(CN(C)CC(=O)N(C)c3ccc(Cl)c(Cl)c3)nc12 [Example 40, 2-(N-((3,4-dihydro-7-methyl-4-oxothieno[3,2-d]pyrimidin-2-yl)methyl)-N-methylamino)-N-(3,4-dichlorophenyl)-N-methylacetamide] | B (ΔTm GALC between 0.5 and 1 is shown as B)

— patent publication US20230140216A1, “COMBINATION THERAPY FOR TREATING MPS1” (GAIN THERAPEUTICS SA, priority 2020, published 2023)
